For this experiment, the system named is seborrheic keratoses (SKs). Kind of experiment: Formulary and performance observations on ingredients added to the SK treatment compositions. Format: in vivo, human. The following applies: for performance on addition to the BWE composition: added antioxidant, with BWE; for improvement of the treatment of seborrheic keratosis: dietary antioxidant. The source says:
A number of formulary and performance observations were made in the various aforementioned pilot and case studies as well as additional variants thereof not reported here. […] Additionally, the addition of keratolytic agents and emollients appeared to help keep the composition from drying and improved the penetration of the composition into the SK.

Consider 4 molecules from patent US11903990B2, “Compositions and methods for treating and removing seborrheic keratoses” (priority 2017, dated 2024).

`CC(=O)N[C@@H](CS)C(=O)O` [N-acetyl cysteine]: the “performance on addition to the BWE composition” value (“performance on addition” for short) is given as “no visible improvement” and the “improvement of the treatment of seborrheic keratosis” value (from here on “improvement”) was “not found to improve”.

For the molecule `O=C(O)/C=C/c1ccc(O)c(O)c1` [caffeic acid], the “performance on addition” value was “no visible improvement” and the “improvement” value is reported as “not found to improve”.

In the case of `CC(C)=CCC/C(C)=C/C=C/C(C)=C/C=C/C(C)=C/C=C/C=C(C)/C=C/C=C(C)/C=C/C=C(\C)CCC=C(C)C` [lycopene], the “performance on addition” value is “no visible improvement” and the “improvement” value was “not found to improve”.

As to `Oc1ccc(C=Cc2cc(O)cc(O)c2)cc1` [resveratrol], the “performance on addition” value is reported as “no visible improvement” and the “improvement” value is “not found to improve”.
